# Reference: patent publication US20240408112A1, “METHOD FOR PREVENTING OR TREATING PULMONARY ARTERIAL HYPERTENSION BY USING 7-DEHYDROCHOLESTEROLS OR SALTS, OXIDES, METABOLITES, OR DERIVATIVES THEREOF” (EXCELSIOR PHARMATECH LABS., priority 2023, published 2024)
# pIC50: −log10 of the molar value.
# Tests used:
# [1] = system: TGF-β-stimulated PAI-1 promoter activity; experiment: TGF-β stimulated Pai-1 luciferase assay in MLECs-clone32 cells; type: cell-based; conditions: TGF-β 50 pM, 4 hours, read-out: IC50 value of compound inhibiting TGF-β-stimulated Pai-1 luciferase activity (%)
# Description: TGF-β Stimulated Pai-1 Luciferase Assay
# MLECs-clone32 cell line was used to measure the impact of different compounds on the downstream gene, plasminogenactivator inhibitor 1 (PAI-1) performance stimulated by TGF-β. MLECs-clone32 is an expression construct that is stably transfected for the Mv1Lu cell line, and the expression construct PAI-1 Luciferase contains a truncated (PAI-1) promoter fused to the firefly luciferase reporter gene^11,12. The activity stimulated by the truncated PAI-I promoter was quantified by using a luciferase assay. The luciferase activity stimulated by TGF-β in cells without compound treatment was set as 100%, and the effects of each compound on TGF-β-stimulated PAI-I promoter activity were compared. The steps for measuring Pai-1 luciferase activity include using a 96-well plate (DMEM medium containing 10% FBS), seeding each well with 1.5×10^5 cells, and culturing in an incubator overnight. After discarding the medium the next day, cells in DMEM medium with or without the addition of test compounds were treated with recombinant TGF-β (50 pM) and allowed to react in a 37° C. incubator for 4 hours. The cell culture medium was aspirated, washed with PBS, and the activity of Pai-1 luciferase was evaluated by luciferase assay.
# [2] = system: monocrotaline induced pulmonary hypertension rat; experiment: Monocrotaline-induced pulmonary arterial hypertension rat model, Example 2 (7-DHC, 042); type: in vivo; conditions: for Arterial gas analysis pH value, PaO2 and PaCO2, in words: between groups CON, MCT and treated; for Base excess (BE) value: MCT group −5.5, normal −2 to +2
# Description: (§1) Pulmonary arterial hypertension animal experimental model
# (§2) The present disclosure utilizes injection of monocrotaline to induce symptoms of pulmonary arterial hypertension in rats to establish a pulmonary arterial hypertension animal experimental model suitable for screening test drugs.
# (§3) The diagnostic method of clinical pulmonary arterial hypertension standards is right heart catheterization, which is defined as mean pulmonary arterial pressure (mPAP) greater than or equal to 20 mmHg. The diagnostic criteria for pulmonary arterial hypertension, in addition to an increase in mean pulmonary arterial pressure, need to be combined with pulmonary vascular resistance (PVR) greater than 3 Wood unit. The right ventricle pressure (RVP) and systemic mean blood pressure (mbp) in rats with pulmonary arterial hypertension were measured by Millar Model PCU200 pressure system, and the heart rate (HR) was also monitored at the same time. After measuring the hemodynamic data, the arterial blood was extracted from the carotid artery of the pulmonary arterial hypertension rat, and the Abbott blood oximeter (i-STAT) combined with Abbott's special chip cartridge (i-STAT Cartridge G3+) was used to measure arterial gas analysis data such as pH, PaO2, PaCO2, HCO3 and base excess (BE) value in quantitative whole blood samples. The normal pH value is between 7.35 and 7.45, and the pH value indicates whether the experimental animal has the condition of acidemia, alkalemia, acidosis or alkalosis. The normal value of PaO2 is between 80 and 100 mmHg, which reflects the effectiveness of gas exchange (ventilation/perfusion). The normal value of PaCO2 is between 35 and 45 (such as 38 and 42) mmHg, which can evaluate the effectiveness of alveolar ventilation. The acid produced by food, tissue decomposition, inflammation and hypoxia rely on the lungs to excrete volatile acid CO2 (short-term) and the bicarbonate (HCO3^−) produced by the kidneys (long-term) to neutralize non-volatile acids, while the normal value of bicarbonate hydrogen radical (HCO3^−) is between 22 and 26 meq/L. BE is the base excess value, its normal value ranges from −2 to +2, the negative value represents the degree of alkali ion deficiency in the blood, a negative BE value (−) that is too high indicates metabolic acidosis, and a positive value (+) that is too high is metabolic alkalosis. At the end of the experiment, the rats were sacrificed and their hearts were removed and the left and right ventricles were separated and weighed (RV)/(S)+(LV).
# Monocrotaline (MCT) was utilized to induce pulmonary hypertension rat animal model, the TGF-β receptor inhibitor 7-DHC (039) and compound No. 042 were tested via intraperitoneal (IP) administration, and the physiological parameters of the animals were collected, wherein includes measuring right ventricle pressure, systemic arterial pressure, heartbeat and right ventricle hypertrophy, as well as observing and analyzing the pulmonary artery thickening and blood oxygenation levels through pathological sections of lung tissue. Specifically, 7-DHC (039) was divided into two groups with a dosage of 10 mg/kg or 20 mg/kg, the dosage of group 042 was 50 mg/kg, each dosage group has 3 rats (n=3), while the control group (CON) and the pulmonary arterial hypertension rat group (MCT) had 6 rats (n=6) respectively.
# [3] = system: monocrotaline induced pulmonary arterial hypertension rat; experiment: Monocrotaline-induced pulmonary arterial hypertension rat model, Example 3 (7-DHC vs macitentan); type: in vivo; conditions: for Right ventricle pressure (RVP): 25th day after monocrotaline induction, MCT rats 28.97 mmHg; for Arterial gas analysis PaO2 and PaCO2, in words: between groups CON, MCT and treated; for Thickening of pulmonary arteries, in words: p<0.001, vs MCT rats (exceeded 65%); for Base excess (BE) value: MCT group −6, normal −2 to +2; for Average right ventricle hypertrophy ratio (RV/S+LV): MCT rats 71.64%, normal rats 26.7%
# Description: as §1, §2, §3
# Monocrotaline was utilized to induce pulmonary arterial hypertension rat animal model, intraperitoneal injection (IP) TGF-β receptor inhibitor 7-DHC (039) and oral administration of macitentan (soluble in methylcellulose), 7-DHC (039) was divided into two groups according to the dosage: 10 mg/kg or 20 mg/kg, and the dosage of macitentan group was 30 mg/kg.
smiles,measurement,setting,value
"CC(C)CCCC(C)C1CCC2C3=CC=C4CC(O)CCC4(C)C3CCC21C (centres unmarked) [Code 039, 7-DHC]",pIC50,[1],4.81
same,"Arterial gas analysis pH value, PaO2 and PaCO2, in words",[2]; 10 mg/kg IP,did not show any significant differences
same,"Thickness of the pulmonary artery blood vessels (medial wall thickness), in words","[2]; 10 mg/kg IP, p<0.001, vs MCT rats (exceeded 55%)",significantly reduced
same,Base excess (BE) value,[2]; 10 mg/kg IP,−2
same,Animal survival status,"[2]; 20 mg/kg IP, 23rd day after monocrotaline induction",had died
same,"Arterial gas analysis pH value, PaO2 and PaCO2, in words",[2]; 20 mg/kg IP,did not show any significant differences
same,Base excess (BE) value,[2]; 20 mg/kg IP,0
same,"Systemic blood pressure and heartbeat, in words",[2]; 10 or 20 mg/kg IP,did not reduce
same,"Right ventricle pressure (RVP), in words","[2]; 10 or 20 mg/kg IP, vs MCT rats (28 mmHg)",can be reduced
same,Right ventricle pressure (RVP),[3]; 10 mg/kg IP,17.61 mmHg
same,"Arterial gas analysis PaO2 and PaCO2, in words",[3]; 10 mg/kg IP,no significant difference
same,"Thickening of pulmonary arteries, in words",[3]; 10 mg/kg IP,significantly reduced
same,Base excess (BE) value,[3]; 10 mg/kg IP,−3
same,Average right ventricle hypertrophy ratio (RV/S+LV),[3]; 10 mg/kg IP,53.96%
same,Activity of the rats,[3]; 20 mg/kg IP,did not affect
same,Survival rate,[3]; 20 mg/kg IP,100%
same,Weight of rats,[3]; 20 mg/kg IP,decreased significantly
same,Right ventricle pressure (RVP),[3]; 20 mg/kg IP,19.96 mmHg
same,"Arterial gas analysis PaO2 and PaCO2, in words",[3]; 20 mg/kg IP,no significant difference
same,"Thickening of pulmonary arteries, in words",[3]; 20 mg/kg IP,significantly reduced
same,Base excess (BE) value,[3]; 20 mg/kg IP,−1.4
same,Average right ventricle hypertrophy ratio (RV/S+LV),[3]; 20 mg/kg IP,62.97%
same,"Systemic average blood pressure and heartbeat, in words",[3]; 10 or 20 mg/kg IP,did not significantly reduce
